Values joined by “and” are separate entries in the source; they are usually repeats but may differ in a detail not shown here. Equal entries are not always repeated. Where two headings read alike, the source gives them in different places.
Tests used:
[1] = test system: L. aethiopica promastigotes; test: Primary antipromastigote assay (resazurin based); assay type: cell-based; conditions: Leishmania aethiopica, 72 h; for IC50: dose titration 0.03 to 1 μM, average of two independent experiments in triplicate, read-out: IC50 (95% CI) against Leishmania aethiopica promastigotes
Procedure: Test compounds were diluted in 96-well microculture plate containing 100 μL complete M199 medium. […] The Parasite density was kept constant at 1 × 10^5 per well. After 68 h of incubation, 10 μL of fluorochrome resazurin solution (Sigma-Aldrich, Co., St. […] The percentage of inhibition (%) was calculated for each concentration using the following formula: Inhibition%=100−Fluorescence in duplicate drug wells-Fluorescence in blank wells/Fluorescence control wells−Fluorescence in blank wells∗100

[2] = test system: intracellular L. aethiopica amastigotes; test: Intracellular amastigote assay in mouse peritoneal macrophages; assay type: cell-based, Leishmania aethiopica; conditions: for IC50 / inhibition at 1 µM: Leishmania aethiopica, Peritoneal macrophage, 72 h; for IC50: mouse peritoneal macrophages, read-out: IC50 against intracellular L. aethiopica amastigotes; for inhibition at 1 µM: read-out: percentage of inhibition of intracellular amastigotes
Procedure: Intracellular amastigote assay was conducted according to the method described elsewhere with modifications. Approximately 3 × 10^5 peritoneal macrophages were seeded in 24-well plates and allowed to adhere for 12 h at 33 °C in 5% CO2. Adherent cells were infected with late-stage L. aethiopica promastigotes (1:10 ratio) after washing out non-adherent cells twice. Only when > 70% of the macrophages present in the wells were infected was the infection deemed sufficient. The medium was then replaced with a fresh complete medium with or without test compounds and incubated for 72 h at 33 °C and 5% CO2. After 72 h of incubation, slides were washed with prewarmed PBS, fixed with methanol, and stained with Giemsa (10%) for 15 min and observed under 100x oil immersion objective microscope [Olympus]. Amphotericin B and pentamidine were used as reference drugs against test samples.
The IC50 was determined by counting amastigotes in (50) macrophages in duplicate cultures. In all assays except for haemolytic and THP- 1, test compounds were diluted in a two-fold dose-titration range (0.03 to 1 μM) in triplicate. Parasite burden was calculated using the infection index as shown below. Infection index=Number of infected macrophages/Total macrophage countedxTotal number of amastigotes in infected macrophages/Total infected macrophages counted

Haemolysis test = assay type: cell-based, sheep; conditions: sheep
Procedure: (§1) The mixture was then centrifuged at 1000 g for 10 min. 75 μL of the resulting supernatant were transferred to 96-well plates and the absorbance readings obtained at 540 nm using Victor3 Multilabel Counter (PerkinElmer, Waltham, USA).

[3] = ref NCBI PubChem [29]-[39]; cited from earlier work
[4] = THP-1 cell cytotoxicity assay (resazurin); assay type: cell-based; conditions: human
Procedure: (§2) Approximately 2 × 10^5 THP-1 cell suspension were added to 96-well microplate containing serially diluted 50 μL test compounds. Microplates were then incubated for 68 h at 37 °C in a 5% CO2 air mixture. Cell viability was determined with the resazurin- based fluorescence assay measured after a total incubation time of 72 h. The estimated median cell cytotoxicity (CC50) was calculated for each concentration using the formula: Cell viability%=Fluorescence in duplicate drug wells-Fluorescence blank wells/Fluorescence in control wells−Fluorescence blank wells∗100 The selectivity index of compounds was calculated from the ratio of the CC50 value determined in THP1 cells to the IC50 value determined from the dose-response curves in promastigote and amastigote assay using the following formula. Selectivity indexSI=CC50THP1cells/IC50promastigotes or amstigotes

[5] = test system: sheep red blood cells (RBCs); test: Haemolysis test; assay type: cell-based; conditions: at 25 μM
Procedure: as §1

THP-1 cells = test: THP-1 cell cytotoxicity assay (resazurin); assay type: cell-based
Procedure: as §2

MRC-5 cells = test system: MRC-5 cells; design: method as in MMV (MMV PB website); conditions: ref MMV (MMV PB website); read-out: IC50 against MRC-5 cells; cited from earlier work
L. infantum = test system: L. infantum; design: method as in MMV biological data; conditions: ref MMV biological data; cited from earlier work
PMM cells = test system: PMM cells; design: method as in MMV (MMV PB website); conditions: ref MMV (MMV PB website); read-out: IC50 against PMM cells; cited from earlier work
[6] = hit map sheet with colour categories, negative values shown as 0.00, read-out: Percentage of inhibition against Leishmania aethiopica promastigotes
[7] = hit map sheet without colour categories, negative values kept, read-out: Percentage of inhibition against Leishmania aethiopica promastigotes
[8] = sheep red blood cells (2% blood suspension), 1.56–25 μM, 2 h, 37 °C, read-out: Cytotoxicity, CC50, Sheep RBC
[9] = THP-1 cells, 72 h, read-out: Cytotoxicity, CC50, THP-1

Structure (SMILES)	IC50 [2]	IC50 [1]	inhibition at 1 µM [1, 6]	inhibition at 1 µM [1, 7]	CC50 at 2 h (Haemolysis test; [8])	R3 H+ bond receiver [3]	R6 Polar surface area [3]	activities against the intracellular amastigotes (in words) [2]	CC50 at 72 h [4, 9]	inhibition at 1 µM [2]	CC50 at 2 h (Haemolysis test)	CC50 at 72 h [4]	hemolytic activity on sheep RBC [5]	CC20 on THP-1 cell line (THP-1 cells; 72 h)	IC50 (MRC-5 cells)	IC50 (L. infantum)	IC50 (PMM cells)	Cytotoxicity, CC50 (extrapolated IC50), THP-1 (THP-1 cells; 72 h, extrapolated result)	Selectivity index (SI) (THP-1 cells; CC50 THP-1 cells / IC50 promastigotes or amastigotes)
CN1CCC(NCc2cccc(-c3ccc(S(=O)(=O)NCc4ccccc4)cc3)c2)CC1 [MMV022029]		305 nM	88%	88%	> 25000 nM	5	69.8 A^2	low	> 25000 nM										
O=C(Nc1cccc(Cl)c1)c1cnc(N2CCN(c3ccncc3)CC2)c(Cl)c1 [MMV024406]	900 ± 65.9 nM	24 nM	97.3%	97.3%	> 25000 nM	5	61.4 A^2	low	> 25000 nM	55.6 ± 5.5%									
Cc1cccc(C(=O)Nc2ccnc(N(C)C3CCN(CC(C)C)CC3)c2)c1 [MMV024829]	411 ± 56.6 nM	356 nM	82.4%	82.4%		4				69.6 ± 4.1%	> 25000 nM	> 25000 nM							
CN1CCCC1CCO[C@](C)(c1ccccc1)c1ccc(Cl)cc1 (stereo partly drawn) [MMV637229]						2													
Clc1cccc(C(c2ccc(CN3CCNCC3)cc2)n2ccnc2)c1 (stereo not drawn) [MMV663250]		326 nM	81%	81%	> 25000 nM	3	33.1 A^2		> 25000 nM										
CO[C@@H]1CN(c2ccc(C#CC3(O)CN4CCC3CC4)c(Cc3ccccc3)n2)C[C@H]1O (stereo partly drawn) [MMV688415]	374 ± 45.4 nM	145 nM	98.7%		> 25000 nM	6			> 25000 nM	68.6 ± 6.6%			5.3%	25000 nM					
CCCCCCCCCCCCCCCCOP(=O)([O-])OCC[N+](C)(C)C [Miltefosine, reference compound]			35.3%	35.3%															

Further lines, with some results ahead:

IC50 [2]	IC50 [1]	Structure (SMILES)	inhibition at 1 µM [1, 6]	inhibition at 1 µM [1, 7]	CC50 at 2 h (Haemolysis test; [8])	R3 H+ bond receiver [3]	R6 Polar surface area [3]	activities against the intracellular amastigotes (in words) [2]	CC50 at 72 h [4, 9]	inhibition at 1 µM [2]	CC50 at 2 h (Haemolysis test)	CC50 at 72 h [4]	hemolytic activity on sheep RBC [5]	CC20 on THP-1 cell line (THP-1 cells; 72 h)	IC50 (MRC-5 cells)	IC50 (L. infantum)	IC50 (PMM cells)	Cytotoxicity, CC50 (extrapolated IC50), THP-1 (THP-1 cells; 72 h, extrapolated result)	Selectivity index (SI) (THP-1 cells; CC50 THP-1 cells / IC50 promastigotes or amastigotes)
277 ± 7.9 nM		C[C@@H]1[C@H](O)[C@@H](C)/C=C/C=C/C=C/C=C/C=C/C=C/C=C/[C@H](O[C@@H]2O[C@H](C)[C@@H](O)[C@H](N)[C@@H]2O)C[C@@H]2O[C@](O)(C[C@@H](O)C[C@@H](O)[C@H](O)CC[C@@H](O)C[C@@H](O)CC(=O)O[C@H]1C)C[C@H](O)[C@H]2C(=O)O [Amphotericin B, reference compound]	63%	63%															
435 ± 49.2 nM	448 nM	O=C(Nc1ccc(N2CCNCC2)cc1)c1ccn2ncc(-c3cccc(Cl)c3)c2n1 [MMV022478]	98.9%	98.9%	> 25000 nM	5	74.6 A^2		> 25000 nM	72.4 ± 5.6%									
277 ± 37.2 nM	283 nM	COc1cncc(-c2cncc(N3CCN(c4ccncc4)CC3)n2)c1 [MMV085071]	76.1%	76.1%	> 25000 nM	7	67.3 A^2		> 25000 nM	80.5 ± 4.2%									
	390 nM	CN1CCN(CCCOc2ncc(Nc3ncc(-c4ccc(C(F)(F)F)c(F)c4)nc3C(N)=O)cn2)CC1 [MMV687812]	72.9%	72.9%	> 25000 nM	13	122 A^2		> 25000 nM										
	356 nM	N=C(N)Nc1ccc(-c2ccc(-c3ccc(NC(=N)N)cc3Cl)o2)c(Cl)c1 [MMV688179, 2,5-Bis (2-chloro-4-guanidinophenyl) furan]	80.6%	80.6%	> 25000 nM	3	142 A^2		> 25000 nM										
76 ± 18.1 nM	158 nM	COc1ccc(Oc2ccc([C@@H](C)N(C)c3ncc4c(N)nc(N)nc4n3)cc2)cc1 [MMV690102]	95%		> 25000 nM	9	125 A^2			90.7 ± 5.3%					5400 nM	3 nM	4000 nM	36500 nM and 36550 nM and 36000 nM	478.4
1600 ± 90 nM	1310 nM	N=C(N)c1ccc(OCCCCCOc2ccc(C(=N)N)cc2)cc1 [Pentamidine, reference compound]	64.7%	64.7%															

Source: PMC8594108, “In vitro growth inhibitory activity of Medicines for Malaria Venture pathogen box compounds against Leishmania aethiopica” (BMC Pharmacology & Toxicology, 2021)
